Measurements reported in ChEMBL document CHEMBL4665834 (J Med Chem, 2020).
Values belong to the compound of their own block, whether it stands above or below them.

What was measured:
Homo sapiens [1] = species on record: Homo sapiens; assay: Selectivity ratio of IC50 for displacement of [3H]prostaglandin E2 from full-length recombinant human EP3 receptor expressed in HEK293 cell membranes to IC50 for displacement of [3H]PGF2alpha from full-length recombinant human FP receptor expressed in HEK293 cell membranes
Homo sapiens [2] = species on record: Homo sapiens; assay: Selectivity ratio of IC50 for displacement of [3H]prostaglandin E2 from full-length recombinant human EP4 receptor expressed in Chem-1 cell membranes to IC50 for displacement of [3H]PGF2alpha from full-length recombinant human FP receptor expressed in HEK293 cell membranes
Homo sapiens [3] = species on record: Homo sapiens; assay: Selectivity ratio of IC50 for displacement of [3H]PGD2 from full-length recombinant human DP1 receptor expressed in Chem-1 cell membranes to IC50 for displacement of [3H]PGF2alpha from full-length recombinant human FP receptor expressed in HEK293 cell membranes
Cytochrome P450 3A4 = Cytochrome P450 3A4 (Homo sapiens, UniProt P08684); assay: Inhibition of CYP3A4 in human liver microsomes using midazolam as substrate incubated for 10 mins in presence of NADPH generating system by LC-MS/MS analysis
Cytochrome P450 3A4, sequence (P08684 whole entry): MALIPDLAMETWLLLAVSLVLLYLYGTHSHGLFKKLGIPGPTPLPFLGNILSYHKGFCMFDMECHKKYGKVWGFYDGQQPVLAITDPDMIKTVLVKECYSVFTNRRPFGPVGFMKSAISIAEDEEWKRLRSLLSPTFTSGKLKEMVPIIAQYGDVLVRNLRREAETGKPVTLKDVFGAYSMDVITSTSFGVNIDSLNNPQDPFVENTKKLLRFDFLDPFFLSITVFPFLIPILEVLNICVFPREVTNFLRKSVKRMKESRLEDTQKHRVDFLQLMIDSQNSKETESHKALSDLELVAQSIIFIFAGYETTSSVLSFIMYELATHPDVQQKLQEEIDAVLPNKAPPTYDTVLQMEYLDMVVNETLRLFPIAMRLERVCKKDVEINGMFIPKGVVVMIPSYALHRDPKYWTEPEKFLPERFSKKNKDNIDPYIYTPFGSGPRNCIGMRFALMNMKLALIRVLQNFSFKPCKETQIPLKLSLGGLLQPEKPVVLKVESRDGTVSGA

[4] = Lipophilicity, log D of compound at pH 7.5 by HPLC analysis; conditions: buffer
Homo sapiens [5] = species on record: Homo sapiens; assay: Selectivity ratio of IC50 for displacement of [3H]prostaglandin E2 from full-length recombinant human EP1 receptor expressed in HEK293 cell membranes to IC50 for displacement of [3H]PGF2alpha from full-length recombinant human FP receptor expressed in HEK293 cell membranes
Homo sapiens [6] = species on record: Homo sapiens; assay: Selectivity ratio of IC50 for displacement of [3H]PGD2 from full-length recombinant human IP receptor expressed in HEK293 cell membranes to IC50 for displacement of [3H]PGF2alpha from full-length recombinant human FP receptor expressed in HEK293 cell membranes
Homo sapiens [7] = species on record: Homo sapiens; assay: Selectivity ratio of IC50 for displacement of [3H]prostaglandin E2 from full-length recombinant human EP2 receptor expressed in HEK293 cell membranes to IC50 for displacement of [3H]PGF2alpha from full-length recombinant human FP receptor expressed in HEK293 cell membranes
[8] = Clearance in Wistar rat at 0.3 to 1 mg/kg, iv administered as bolus dose or 15 mins infusion by LC-MS/MS analysis; format: ADME, organism-based; conditions: in vivo, dose 0.3-1 mg/kg; for clearance: Wistar; for CL: 0.25 h
[9] = target: Prostaglandin F2-alpha receptor (Homo sapiens, UniProt P43088); assay: Antagonist activity at human FPR expressed in human Chem-1 cells assessed as inhibition of PGF2alpha-induced calcium flux preincubated for 10 mins followed by PGF2alpha stimulation and measured for 120 secs by fluo-8 AM dye based fluorescence assay; format: functional, cell-based
Prostaglandin F2-alpha receptor, sequence (P43088 whole entry): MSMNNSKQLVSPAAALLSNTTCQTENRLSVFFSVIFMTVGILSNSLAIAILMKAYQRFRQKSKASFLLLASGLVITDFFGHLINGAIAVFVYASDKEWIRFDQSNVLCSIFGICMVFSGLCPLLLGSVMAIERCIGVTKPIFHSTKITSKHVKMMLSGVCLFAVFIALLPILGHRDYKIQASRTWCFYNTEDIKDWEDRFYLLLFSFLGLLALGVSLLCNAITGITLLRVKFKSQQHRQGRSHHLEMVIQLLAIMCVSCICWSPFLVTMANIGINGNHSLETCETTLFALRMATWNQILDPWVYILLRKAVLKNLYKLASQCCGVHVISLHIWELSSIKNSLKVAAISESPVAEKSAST

- IC50 (Cytochrome P450 3A4): > 20 µM
- logD [4]: 1.4
Compound: Cc1c(C(=O)Nc2ccc(C(=O)O)cc2F)c2cc(Br)ccc2[n+]([O-])c1-c1ccccc1
- Ratio IC50 (Homo sapiens [1]): > 91
- Ratio IC50 (Homo sapiens [2]): 53
- Ratio IC50 (Homo sapiens [3]): > 91
- Ratio IC50 (Homo sapiens [5]): > 91
- Ratio IC50 (Homo sapiens [6]): > 91
- Ratio IC50 (Homo sapiens [7]): > 91

- logD [4]: 2.1
Compound: O=C(O)c1ccc(NC(=O)c2c(Cl)c(-c3ccccc3)nc3ccc(Br)cc23)c(F)c1
- Ratio IC50 (Homo sapiens [1]): > 38
- Ratio IC50 (Homo sapiens [2]): 14
- Ratio IC50 (Homo sapiens [3]): > 38
- Ratio IC50 (Homo sapiens [5]): > 38
- Ratio IC50 (Homo sapiens [6]): > 38
- Ratio IC50 (Homo sapiens [7]): > 38

- clearance [8]: 20 mL/min/kg
- IC50 (Cytochrome P450 3A4): > 20 µM
- logD [4]: 2.3
Compound: Cc1c(N2CCCC2)nc2ccc(Br)cc2c1C(=O)NC[C@@H](CCC(=O)O)c1ccccc1Cl

- IC50 (Cytochrome P450 3A4): > 20 µM
- logD [4]: 1.9
Compound: Cc1c(-c2ccccc2)nc2ccc(Cl)cc2c1C(=O)Nc1ccc(C(=O)O)cc1F
- Ratio IC50 (Homo sapiens [2]): 17

- IC50 [9]: 15 µM
Compound: Cc1c(-c2ccccc2)nc2ccc(Br)cc2c1C(=O)N(C)CCc1ccccn1

- clearance [8]: 11.7 mL/min/kg
- IC50 [9]: 0.025 µM
Compound: Cc1c(-c2ccccc2)nc2ccc(Br)cc2c1CNc1ccc(C(=O)O)cc1F

- logD [4]: 2.1
Compound: O=C(O)c1ccc(NC(=O)c2c(C3CC3)c(-c3ccccc3)nc3ccc(Br)cc23)c(F)c1
- Ratio IC50 (Homo sapiens [2]): 8.8

- clearance [8]: 40 mL/min/kg
- IC50 (Cytochrome P450 3A4): > 20 µM
- logD [4]: 2.1
Compound: Cc1c(-c2ccccc2)nc2ccc(C(F)(F)F)cc2c1C(=O)Nc1ccc(C(=O)O)cc1F
- Ratio IC50 (Homo sapiens [1]): > 64
- Ratio IC50 (Homo sapiens [2]): 13
- Ratio IC50 (Homo sapiens [3]): > 64
- Ratio IC50 (Homo sapiens [5]): > 64
- Ratio IC50 (Homo sapiens [6]): > 64
- Ratio IC50 (Homo sapiens [7]): > 64

- clearance [8]: 10 mL/min/kg
- IC50 [9]: 0.013 µM
Compound: Cc1c(-c2ccccc2)cc2ccc(Br)cc2c1C(=O)Nc1ccc(C(=O)O)cc1F

- clearance [8]: 20 mL/min/kg
- IC50 [9]: 0.25 µM
- IC50 (Cytochrome P450 3A4): > 20 µM
- logD [4]: 2.2
Compound: Cc1c(-c2ccccc2)nc2ccc(Br)cc2c1COc1ccc(C(=O)O)cc1F
- Ratio IC50 (Homo sapiens [2]): 20

Compound: Cc1c(-c2ccccc2)nc2ccc(Br)cc2c1C(=O)Nc1ccc(C(=O)O)cc1F
- Ratio IC50 (Homo sapiens [1]): > 76
- Ratio IC50 (Homo sapiens [2]): 16
- Ratio IC50 (Homo sapiens [3]): > 76
- Ratio IC50 (Homo sapiens [5]): > 76
- Ratio IC50 (Homo sapiens [6]): > 76
- Ratio IC50 (Homo sapiens [7]): > 76

- IC50 (Cytochrome P450 3A4): > 20 µM
- logD [4]: 2.6
Compound: Cc1c(N2CC(F)(F)C2)nc2ccc(Br)cc2c1C(=O)NCC(CCC(=O)O)c1ccccc1Cl (racemic)
- Ratio IC50 (Homo sapiens [2]): > 220

- IC50 [9]: 1.1 µM
- IC50 (Cytochrome P450 3A4): > 20 µM
- logD [4]: 1.9
Compound: COc1ccc(C(CNC(=O)c2c(C)c(-c3ccccc3)nc3ccc(Br)cc23)CC(=O)O)cc1 (racemic)
- Ratio IC50 (Homo sapiens [2]): > 63

- IC50 (Cytochrome P450 3A4): > 20 µM
- logD [4]: 2
Compound: COc1cccc(C(CNC(=O)c2c(C)c(-c3ccccc3)nc3ccc(Br)cc23)CC(=O)O)c1 (racemic)

- IC50 [9]: 0.5 µM
Compound: Cc1c(-c2ccccc2)nc2ccc(Br)cc2c1C(=O)NC(C)Cc1ccccn1 (racemic)

Compound: CCC1CCCN(c2nc3ccc(Br)cc3c(C(=O)NCC(CCC(=O)O)c3ccccc3Cl)c2C)C1 (single isomer, unassigned; 52) [listing 1 of 2 here]
- CL [8]: 48.3 mL/min/kg
- IC50 [9]: 0.00053 µM
- IC50 (Cytochrome P450 3A4): 5 µM
- logD [4]: 3.3

Compound: CCC1CCCN(c2nc3ccc(Br)cc3c(C(=O)NCC(CCC(=O)O)c3ccccc3Cl)c2C)C1 (single isomer, unassigned; 52) [listing 2 of 2 here]
- Ratio IC50 (Homo sapiens [1]): > 180
- Ratio IC50 (Homo sapiens [2]): > 180
- Ratio IC50 (Homo sapiens [3]): > 180
- Ratio IC50 (Homo sapiens [5]): > 180
- Ratio IC50 (Homo sapiens [6]): > 180
- Ratio IC50 (Homo sapiens [7]): > 180

Compound: CCC1CCCN(c2nc3ccc(Br)cc3c(C(=O)NCC(CCC(=O)O)c3ccccc3Cl)c2C)C1 (single isomer, unassigned; 53) [listing 1 of 2 here]
- CL [8]: 21.7 mL/min/kg
- IC50 (Cytochrome P450 3A4): 10 µM

Compound: CCC1CCCN(c2nc3ccc(Br)cc3c(C(=O)NCC(CCC(=O)O)c3ccccc3Cl)c2C)C1 (single isomer, unassigned; 53) [listing 2 of 2 here]
- Ratio IC50 (Homo sapiens [1]): > 580
- Ratio IC50 (Homo sapiens [2]): > 580
- Ratio IC50 (Homo sapiens [3]): > 580
- Ratio IC50 (Homo sapiens [5]): > 580
- Ratio IC50 (Homo sapiens [6]): > 580
- Ratio IC50 (Homo sapiens [7]): > 580

Compound: CCC1CCCN(c2nc3ccc(Br)cc3c(C(=O)NCC(CCC(=O)O)c3ccccc3Cl)c2C)C1 (single isomer, unassigned; 54) [listing 1 of 2 here]
- IC50 (Cytochrome P450 3A4): 2 µM

Compound: CCC1CCCN(c2nc3ccc(Br)cc3c(C(=O)NCC(CCC(=O)O)c3ccccc3Cl)c2C)C1 (single isomer, unassigned; 54) [listing 2 of 2 here]
- Ratio IC50 (Homo sapiens [1]): > 180
- Ratio IC50 (Homo sapiens [2]): > 180
- Ratio IC50 (Homo sapiens [3]): > 180
- Ratio IC50 (Homo sapiens [5]): > 180
- Ratio IC50 (Homo sapiens [6]): > 180
- Ratio IC50 (Homo sapiens [7]): > 180

Compound: CCC1CCCN(c2nc3ccc(Br)cc3c(C(=O)NCC(CCC(=O)O)c3ccccc3Cl)c2C)C1 (single isomer, unassigned; 55) [listing 1 of 2 here]
- IC50 [9]: 0.0076 µM
- IC50 (Cytochrome P450 3A4): 5 µM

Compound: CCC1CCCN(c2nc3ccc(Br)cc3c(C(=O)NCC(CCC(=O)O)c3ccccc3Cl)c2C)C1 (single isomer, unassigned; 55) [listing 2 of 2 here]
- Ratio IC50 (Homo sapiens [1]): > 300
- Ratio IC50 (Homo sapiens [2]): > 300
- Ratio IC50 (Homo sapiens [3]): > 300
- Ratio IC50 (Homo sapiens [5]): > 300
- Ratio IC50 (Homo sapiens [6]): > 300
- Ratio IC50 (Homo sapiens [7]): > 300

- IC50 (Cytochrome P450 3A4): > 20 µM
- logD [4]: 2.2
Compound: Cc1c(-c2ccccc2)nc2ccc(Br)cc2c1C(=O)NCC(CCC(=O)O)c1c(F)ccc(F)c1Cl (single isomer, unassigned; (+))

- IC50 (Cytochrome P450 3A4): 20 µM
- logD [4]: 2.3
Compound: Cc1c(-c2ccccc2)nc2ccc(Br)cc2c1C(=O)NCC(CCCC(=O)O)c1ccccc1Cl (single isomer, unassigned; (+))

- clearance [8]: 46.7 mL/min/kg
- IC50 (Cytochrome P450 3A4): > 20 µM
- logD [4]: 2
Compound: COc1ccccc1C(CNC(=O)c1c(C)c(-c2ccccc2)nc2ccc(Br)cc12)CC(=O)O (single isomer, unassigned; (+))

- IC50 [9]: 0.25 µM
Compound: COc1ccccc1C(C)CNC(=O)c1c(C)c(-c2ccccc2)nc2ccc(Br)cc12 (single isomer, unassigned; (+))

- clearance [8]: 21.7 mL/min/kg
Compound: Cc1c(N2CCCCCC2)nc2ccc(Br)cc2c1C(=O)NCC(CCC(=O)O)c1ccccc1Cl (single isomer, unassigned; (+))

Compound: Cc1c(-c2ccccc2)nc2ccc(Br)cc2c1C(=O)NCC(CCC(=O)O)c1ccccc1Cl (single isomer, unassigned; (+))
- Ratio IC50 (Homo sapiens [1]): > 6300
- Ratio IC50 (Homo sapiens [2]): > 6300
- Ratio IC50 (Homo sapiens [3]): > 6300
- Ratio IC50 (Homo sapiens [5]): > 6300
- Ratio IC50 (Homo sapiens [6]): > 6300
- Ratio IC50 (Homo sapiens [7]): > 6300

Compound: Cc1c(-c2ccccc2)nc2ccc(Br)cc2c1C(=O)NCC(CCC(=O)O)c1ccccc1Cl (single isomer, unassigned; (-)) [listing 1 of 2 here]
- CL [8]: 50 mL/min/kg

- clearance [8]: 43.3 mL/min/kg
- IC50 (Cytochrome P450 3A4): 5 µM
Compound: Cc1c(-c2ccccc2)nc2ccc(Br)cc2c1C(=O)NCC(CCC(=O)O)c1c(F)ccc(F)c1Cl (single isomer, unassigned; (-))

- clearance [8]: 38.3 mL/min/kg
Compound: Cc1c(N2CCCCC2)nc2ccc(Br)cc2c1C(=O)NCC(CCC(=O)O)c1c(F)ccc(F)c1Cl (single isomer, unassigned; (-))

- CL [8]: 25 mL/min/kg
Compound: Cc1c(N2CCCCC2)nc2ccc(Br)cc2c1C(=O)NCC(CCC(=O)O)c1ccccc1Cl (single isomer, unassigned; (-))

Compound: Cc1c(-c2ccccc2)nc2ccc(Br)cc2c1C(=O)NCC(CCC(=O)O)c1ccccc1Cl (single isomer, unassigned; (-)) [listing 2 of 2 here]
- Ratio IC50 (Homo sapiens [1]): > 8200
- Ratio IC50 (Homo sapiens [2]): > 8200
- Ratio IC50 (Homo sapiens [3]): > 8200
- Ratio IC50 (Homo sapiens [5]): > 8200
- Ratio IC50 (Homo sapiens [6]): > 8200
- Ratio IC50 (Homo sapiens [7]): > 8200

- CL [8]: 18.3 mL/min/kg
- IC50 (Cytochrome P450 3A4): 13 µM
Compound: Cc1c(-c2ccccc2)nc2ccc(Br)cc2c1C(=O)NCC(CC(=O)O)c1ccccc1Cl (stereo in doubt; 34)

- clearance [8]: 16.7 mL/min/kg
Compound: Cc1c(N2CCCCC2)nc2ccc(Br)cc2c1C(=O)NCC(CCC(=O)O)c1ccccc1Cl (stereo in doubt; 48)
